The values that follow come from US9580449B2, “Compositions and methods for the production of pyrimidine and pyridine compounds with BTK inhibitory activity” (Merck Patent GmbH, priority 2011, dated 2017).

This test addresses full-length human BTK (Homo sapiens (Human), UniProt Q06187). Description: BTK IC50 enzyme assay (microfluidic off-chip mobility shift kinase assay). In kind it is biochemical. Conditions: incubated for 90 min. at 27 C; read-out: Time Dependent BTK Enzyme Assay IC50. An outline of the steps: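 Read-out separates phosphorylated peptide product from substrate by charge/mass in a mobility shift format with full-length human BTK.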

What is called IC50 is the concentration at which inhibition is half-maximal.

Chain of full-length human BTK (Q06187 whole entry): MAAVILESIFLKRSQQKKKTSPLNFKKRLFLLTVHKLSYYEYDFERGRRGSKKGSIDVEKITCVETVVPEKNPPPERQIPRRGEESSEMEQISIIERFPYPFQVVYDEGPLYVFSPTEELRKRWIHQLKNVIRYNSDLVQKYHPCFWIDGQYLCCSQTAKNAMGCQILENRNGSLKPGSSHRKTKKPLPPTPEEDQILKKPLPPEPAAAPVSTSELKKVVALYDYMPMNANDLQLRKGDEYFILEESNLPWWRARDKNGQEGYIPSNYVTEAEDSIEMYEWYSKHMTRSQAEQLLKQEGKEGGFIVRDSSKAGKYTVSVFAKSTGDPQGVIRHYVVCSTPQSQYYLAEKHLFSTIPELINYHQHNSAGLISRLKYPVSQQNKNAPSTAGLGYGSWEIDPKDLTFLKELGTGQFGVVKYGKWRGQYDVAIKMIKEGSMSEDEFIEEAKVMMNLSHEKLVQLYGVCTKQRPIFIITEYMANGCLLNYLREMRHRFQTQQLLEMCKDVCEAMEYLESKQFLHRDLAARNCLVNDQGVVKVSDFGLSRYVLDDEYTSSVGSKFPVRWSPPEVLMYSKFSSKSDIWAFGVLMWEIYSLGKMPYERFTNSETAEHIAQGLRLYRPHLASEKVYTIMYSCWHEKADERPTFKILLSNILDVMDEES

On to `C=CC(=O)NCC1CCCN(c2ncnc(N)c2-c2ccc(Oc3ccccc3)cc2)C1` (centres unmarked) [A309, N-((1-(6-amino-5-(4-phenoxyphenyl)pyrimidin-4-yl)piperidin-3-yl)methyl)acrylamide], for which the 50% inhibitory concentration (IC50) was more than 1 µM.

As to `C=CC(=O)Nc1cccc(Oc2ncnc(N)c2-c2ccc(OCc3ccccc3)cc2)c1` [A249, N-(3-((6-amino-5-(4-(benzyloxy)phenyl)pyrimidin-4-yl)oxy)phenyl)acrylamide], the IC50 is less than 0.1 µM.

In the case of `C=CC(=O)N1CCC(CNc2ncnc(N)c2-c2ccc(Oc3ccccn3)cc2)CC1` [A335, 1-(4-(((6-amino-5-(4-(pyridin-2-yloxy)phenyl)pyrimidin-4-yl)amino)methyl)piperidin-1-yl)prop-2-en-1-one], the IC50 is less than 1 µM.

In the case of `C=CC(=O)N1CCC(CNc2ncnc(N)c2-c2ccc(C(=O)Nc3ccccc3)cc2)C1` (centres unmarked) [A155, 4-(4-(((1-acryloylpyrrolidin-3-yl)methyl)amino)-6-aminopyrimidin-5-yl)-N-phenylbenzamide], the half-inhibitory concentration (IC50) was more than 1 µM.

On to `CCC(=O)Nc1cccc(-c2c(N)ncnc2Oc2ccc(Oc3ccccc3)cc2)c1` [A325, N-(3-(4-amino-6-(4-phenoxyphenoxy)pyrimidin-5-yl)phenyl)propionamide], for which the IC50 is more than 1 µM.

`C=CC(=O)NCCCCNc1ncnc(N)c1-c1ccc(Oc2ccccc2)cc1` [A50, N-(4-((6-amino-5-(4-phenoxyphenyl)pyrimidin-4-yl)amino)butyl)acrylamide]: the IC50 was less than 1 µM.

In the case of `C=CC(=O)N1CCC(CNc2nc(N)ncc2-c2ccc(Oc3ccccc3)cc2)CC1` [A25, 1-(4-(((2-amino-5-(4-phenoxyphenyl)pyrimidin-4-yl)amino)methyl)piperidin-1-yl)prop-2-en-1-one], the concentration for half-maximal inhibition (IC50) was more than 1 µM.

Turning to `C=CC(=O)Nc1cccc(Oc2ccnc(N)c2-c2ccc(OCc3ccccc3)cc2)c1` [A149, N-(3-((2-amino-3-(4-(benzyloxy)phenyl)pyridin-4-yl)oxy)phenyl)acrylamide], the IC50 is less than 1 µM.

For the compound `CC#CC(=O)[C@H]1CCC[C@@H](Nc2ncnc(N)c2-c2ccc(Oc3ccccc3)cc2)C1` [A147, 1-((1S,3R)-3-(6-amino-5-(4-phenoxyphenyl)-pyrimidin-4-ylamino)-cyclohexyl)-but-2-yn-1-one], the 50% inhibitory concentration (IC50) is less than 0.1 µM.

For the compound `C=CC(=O)N1CCC2(CCC2Nc2ncnc(N)c2-c2ccc(Oc3ccccc3)cc2)CC1` (centres unmarked) [A123, 1-(1-((6-amino-5-(4-phenoxyphenyl)pyrimidin-4-yl)amino)-7-azaspiro[3.5]nonan-7-yl)prop-2-en-1-one], the IC50 is more than 1 µM.

With `C=CC(=O)Nc1cccc(Oc2ncnc(N)c2-c2ccc(C(C)(C)O)cc2)c1` [A278, N-(3-((6-amino-5-(4-(2-hydroxypropan-2-yl)phenyl)pyrimidin-4-yl)oxy)phenyl)acrylamide], the IC50 was less than 0.1 µM.

As to `C=CC(=O)Nc1cccc(Oc2ncnc(N)c2-c2cnc(OCc3ccccc3)nc2)c1` [A261, N-(3-((6-amino-2′-(benzyloxy)-[5,5′-bipyrimidin]-4-yl)oxy)phenyl)acrylamide], the IC50 is less than 0.1 µM.

Take `C=CC(=O)Nc1cccc(Oc2ncnc(N)c2-c2ccc(Oc3ccccc3F)nc2)c1` [A165, N-(3-((6-amino-5-(6-(2-fluorophenoxy)pyridin-3-yl)pyrimidin-4-yl)oxy)phenyl)acrylamide]: the IC50 is less than 0.1 µM.

With `Nc1ncnc(NCC2CCN(C(=O)/C=C/CN3CCCC3)CC2)c1-c1ccc(Oc2ccccc2)cc1` [A220, (E)-1-(4-(((6-amino-5-(4-phenoxyphenyl)pyrimidin-4-yl)amino)methyl)piperidin-1-yl)-4-(pyrrolidin-1-yl)but-2-en-1-one], the 50% inhibitory concentration (IC50) is less than 1 µM.

In the case of `C=CC(=O)N1CCCC(Nc2ncncc2-c2ccc(Oc3ccccc3)cc2)C1` (centres unmarked) [A284, 1-(3-((5-(4-phenoxyphenyl)pyrimidin-4-yl)amino)piperidin-1-yl)prop-2-en-1-one], the IC50 was less than 1 µM.

In the case of `CN(C)C/C=C/C(=O)N1CCC[C@@H](Nc2ncnc(N)c2-c2ccc(Oc3ccccc3)cc2)C1` [A74, (R,E)-1-(3-((6-amino-5-(4-phenoxyphenyl)pyrimidin-4-yl)amino)piperidin-1-yl)-4-(dimethylamino)but-2-en-1-one], the 50% inhibitory concentration (IC50) is less than 1 µM.

With `C=CC(=O)[C@H]1CCC[C@H](Nc2ncnc(N)c2-c2ccc(Oc3ccccc3)cc2)C1` [A143, 1-((1S,3S)-3-(6-Amino-5-(4-phenoxyphenyl)-pyrimidin-4-ylamino)-cyclohexyl)-propenone], the IC50 was less than 0.1 µM.

Turning to `C=CC(=O)N1CCC=C(c2cnccc2Oc2ccc(Oc3ccccc3)cc2)C1` [A288, 1-(4′-(4-phenoxyphenoxy)-5,6-dihydro-[3,3′-bipyridin]-1(2H)-yl)prop-2-en-1-one], the concentration for half-maximal inhibition (IC50) is less than 1 µM.

For `Nc1ncnc(Oc2cccc(NC(=O)CCl)c2)c1-c1ccc(OCc2ccccc2)c(F)c1` [A351, N-{3-[6-Amino-5-(4-benzyloxy-3-fluoro-phenyl)-pyrimidin-4-yloxy]-phenyl}-2-chloro-acetamide], the concentration for half-maximal inhibition (IC50) is less than 0.1 µM.

For the compound `C=CC(=O)N[C@H]1CC[C@@H](Nc2ncnc(N)c2-c2ccc(C(=O)Nc3ccccc3)cc2)CC1` [A159, 4-(4-((cis-4-acrylamidocyclohexyl)amino)-6-aminopyrimidin-5-yl)-N-phenylbenzamide], the IC50 was more than 1 µM.

Consider `C=CC(=O)Nc1cccc(Oc2ncnc(N)c2-c2cnn(Cc3cccc(C(F)(F)F)c3)c2)c1` [A195, N-(3-((6-amino-5-(1-(3-(trifluoromethyl)benzyl)-1H-pyrazol-4-yl)pyrimidin-4-yl)oxy)phenyl)acrylamide], for which the IC50 is less than 0.1 µM.

`C=CC(=O)Nc1cccc(Oc2ncnc(N)c2-c2ccc(OC(C)C)cc2)c1` [A289, N-(3-((6-amino-5-(4-isopropoxyphenyl)pyrimidin-4-yl)oxy)phenyl)acrylamide]: the IC50 is less than 1 µM.

In the case of `C=CC(=O)NCCCNc1ncnc(N)c1-c1ccc(Oc2ccccc2)cc1` [A59, N-(3-((6-amino-5-(4-phenoxyphenyl)pyrimidin-4-yl)amino)propyl)acrylamide], the IC50 is less than 1 µM.

Turning to `CC#CC(=O)Nc1cccc(Oc2ccnc(N)c2-c2ccc(Oc3ccccc3)cc2)c1` [A340, N-(3-((2-amino-3-(4-phenoxyphenyl)pyridin-4-yl)oxy)phenyl)but-2-ynamide], the IC50 was less than 0.1 µM.

As for `C=CC(=O)Nc1cccc(Oc2ncnc(N)c2-c2cnn(Cc3cccc(N(C)C)c3)c2)c1` [A212, N-(3-((6-amino-5-(1-(3-(dimethylamino)benzyl)-1H-pyrazol-4-yl)pyrimidin-4-yl)oxy)phenyl)acrylamide], the IC50 was less than 0.1 µM.

For the compound `C=CC(=O)Nc1cccc(Oc2ncnc(N)c2-c2cc(F)c(OCc3ccccc3)cc2F)c1` [A339, N-(3-((6-amino-5-(4-(benzyloxy)-2,5-difluorophenyl)pyrimidin-4-yl)oxy)phenyl)acrylamide], the IC50 is less than 0.1 µM.

In the case of `C/C=C/C(=O)N1CCC(CNc2ncnc(N)c2-c2ccc(Oc3ccccc3)cc2)CC1` [A13, (E)-1-(4-(((6-amino-5-(4-phenoxyphenyl)pyrimidin-4-yl)amino)methyl)piperidin-1-yl)but-2-en-1-one], the IC50 was more than 1 µM.

`C=CC(=O)N1CCC(CNc2ncnc(N)c2-c2ccc(OC)c(OC)c2)CC1` [A82, 1-(4-(((6-amino-5-(3,4-dimethoxyphenyl)pyrimidin-4-yl)amino)methyl)piperidin-1-yl)prop-2-en-1-one]: the IC50 was more than 1 µM.

With `C=CC(=O)Nc1ccc(F)c(Oc2ccnc(N)c2-c2ccc(Oc3ccccc3)cc2)c1` [A158, N-(3-((2-amino-3-(4-phenoxyphenyl)pyridin-4-yl)oxy)-4-fluorophenyl)acrylamide], the IC50 was less than 0.1 µM.

Turning to `C=CC(=O)N1CCC(CNc2ncnc(N)c2-c2ccc(Oc3cccc(C(F)(F)F)c3)cc2)CC1` [A95, 1-(4-(((6-amino-5-(4-(3-(trifluoromethyl)phenoxy)phenyl)pyrimidin-4-yl)amino)methyl)piperidin-1-yl)prop-2-en-1-one], the IC50 is less than 0.1 µM.

`CN(C)C/C=C/C(=O)N1CC[C@H](CNc2ncnc(N)c2-c2ccc(Oc3ccccc3)cc2)C1` [A62, (R,E)-1-(3-(((6-amino-5-(4-phenoxyphenyl)pyrimidin-4-yl)amino)methyl)pyrrolidin-1-yl)-4-(dimethylamino)but-2-en-1-one]: the IC50 was less than 1 µM.

Regarding `C=CC(=O)N1CC[C@@H](COc2ncnc(N)c2-c2ccc(Oc3ccc(C#N)cc3)cc2)C1` [A201, (R)-4-(4-(4-((1-acryloylpyrrolidin-3-yl)methoxy)-6-aminopyrimidin-5-yl)phenoxy)benzonitrile], the half-inhibitory concentration (IC50) was less than 1 µM.

Regarding `C=CC(=O)Nc1cccc(Oc2ncnc(N)c2-c2cccc(OC(F)(F)F)c2)c1` [A164, N-(3-((6-amino-5-(3-(trifluoromethoxy)phenyl)pyrimidin-4-yl)oxy)phenyl)acrylamide], the half-maximal inhibitory concentration (IC50) was more than 1 µM.

`C=CC(=O)Nc1cccc(Oc2ncnc(N)c2-c2cnn(Cc3cccc(Cl)c3)c2)c1` [A191, N-(3-((6-amino-5-(1-(3-chlorobenzyl)-1H-pyrazol-4-yl)pyrimidin-4-yl)oxy)phenyl)acrylamide]: the IC50 is less than 0.1 µM.

Regarding `NCc1cccc(-c2cnccc2Oc2ccc(Oc3ccccc3)cc2)c1` [A316, (3-(4-(4-phenoxyphenoxy)pyridin-3-yl)phenyl)methanamine], the half-inhibitory concentration (IC50) is more than 1 µM.

Take `C#CC(=O)N1CC(CCNc2ncnc(N)c2-c2ccc(Oc3ccccc3)cc2)C1` [A104, 1-(3-(2-((6-amino-5-(4-phenoxyphenyl)pyrimidin-4-yl)amino)ethyl)azetidin-1-yl)prop-2-yn-1-one]: the half-maximal inhibitory concentration (IC50) was less than 0.1 µM.

Take `C/C=C/C(=O)Nc1cccc(-c2cnccc2Oc2ccc(Oc3ccccc3)cc2)c1` [A307, (E)-N-(3-(4-(4-phenoxyphenoxy)pyridin-3-yl)phenyl)but-2-enamide]: the IC50 was more than 1 µM.

For `C=CC(=O)Nc1cncc(Nc2ncnc(N)c2-c2ccc(Oc3ccccc3)cc2)c1` [A186, N-(5-((6-amino-5-(4-phenoxyphenyl)pyrimidin-4-yl)amino)pyridin-3-yl)acrylamide], the IC50 was less than 0.1 µM.
